Where “and” joins values, the source holds several entries; their conditions need not be identical. Equal entries are not always repeated.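 Cells were grown in 96-well plates and exposed to each compound for 48 hours at five concentrations; endpoints were interpolated linearly between bracketing concentrations, or set to the highest concentration if not reached. GI50 marks 50% less growth. TGI is the concentration that stops growth completely.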
Tests used:
Test in all cases: growth of human tumour cells (NCI), 48 h
A498 renal = test system: A498 renal
A549 NSCLC = test system: A549 NSCLC
CAKI-1 renal = test system: CAKI-1 renal
IGROV1 ovarian = test system: IGROV1 ovarian
K-562 leukemia = test system: K-562 leukemia
LOX IMVI melanoma = test system: LOX IMVI melanoma
NCI-H460 lung = test system: NCI-H460 lung
RPMI-8226 leukemia = test system: RPMI-8226 leukemia
SNB-19 CNS = test system: SNB-19 CNS
UACC-62 melanoma = test system: UACC-62 melanoma

Row | Structure (SMILES) | GI50 (A498 renal) | TGI (A498 renal) | GI50 (A549 NSCLC) | TGI (A549 NSCLC) | GI50 (CAKI-1 renal) | TGI (CAKI-1 renal) | GI50 (IGROV1 ovarian) | TGI (IGROV1 ovarian) | GI50 (K-562 leukemia) | TGI (K-562 leukemia) | GI50 (LOX IMVI melanoma) | TGI (LOX IMVI melanoma) | GI50 (NCI-H460 lung) | TGI (NCI-H460 lung) | GI50 (RPMI-8226 leukemia) | TGI (RPMI-8226 leukemia) | GI50 (SNB-19 CNS) | TGI (SNB-19 CNS) | GI50 (UACC-62 melanoma) | TGI (UACC-62 melanoma)
1 | CSc1nc2c(c(=O)[nH]1)N=C1c3ccccc3C(=O)C1C(c1ccccc1)N2 (stereo unspecified) | 2 µM | 38 µM | 6.98 µM | > 100 µM | 2.18 µM | > 100 µM | 4.54 µM | > 100 µM | 1.27 µM | > 100 µM | 5.65 µM | > 100 µM | 3.16 µM | 38.1 µM | 3.01 µM | > 100 µM | > 100 µM | > 100 µM | 2.14 µM | > 100 µM
2 | COc1cc(-c2nn(-c3ccc(NC(=O)c4ccc(Cl)c(C(F)(F)F)c4)cc3)cc2-c2ccncc2)ccc1Cl | 2.4 µM | 17.9 µM | 4.94 µM | > 100 µM | 1.71 µM | 7.29 µM | 3.96 µM | > 100 µM | 1.81 µM | 5.67 µM | 1.55 µM | 3.88 µM | 3.43 µM | > 100 µM | 1.79 µM | 6.47 µM | 4.55 µM | > 100 µM | 2.2 µM | 5.44 µM
3 | CN(C)CC[N+]1=Nc2cccc3cccc(c23)N1 | – | > 100 µM | – | > 100 µM | – | > 100 µM | – | > 100 µM | – | > 63.4 µM | – | > 63.7 µM | – | > 64.8 µM | – | > 66.8 µM | – | > 100 µM | – | > 100 µM
4 | CN/N=C(/Cc1occc(=O)c1O)C(=O)Nc1ccccc1C | – | > 100 µM | – | > 100 µM | – | > 100 µM | – | > 100 µM | – | > 100 µM | – | > 100 µM | – | > 100 µM | – | > 100 µM | – | > 100 µM | – | > 100 µM
5 | OCc1ccc(N2CCC2c2ccc(F)cc2)cc1Cl (stereo unspecified) | 0.0584 µM | 0.244 µM | 7.44 µM | 64 µM | 12.9 µM | > 57.1 µM | – | 0.742 µM | 6.66 µM | 58.6 µM | 22.5 µM | 51.1 µM | 0.511 µM | 12.4 µM | 6.56 µM | 31.6 µM | 36.6 µM | > 100 µM | 0.397 µM | 6.95 µM
6 | O=C(Nc1ccccc1OC(F)(F)F)Nc1n[nH]c2ccccc12 | > 100 µM | > 100 µM | 15.7 µM | 60.1 µM | 31 µM | > 100 µM | 4.59 µM | 83.6 µM | 47.2 µM | > 100 µM | 22.5 µM | > 100 µM | 15 µM | > 100 µM | 5.2 µM | 53.1 µM | 78.3 µM | > 100 µM | 31.7 µM | > 100 µM
7 | Cc1ccc2c(=O)cc(-c3ccc(F)cc3)[nH]c2n1 | – | 66.6 µM | – | > 100 µM | – | > 100 µM | – | > 100 µM | – | 83 µM | – | > 100 µM | 33.6 µM | > 100 µM | – | 95.1 µM | – | > 100 µM | – | > 100 µM
8 | CCCCCN(CCCCC)CC(O)c1cc(C)c2ccc3cc(C(C)C)ccc3c2c1 (stereo unspecified) | 1.56 µM | 2.94 µM | 2.61 µM | 5.58 µM | 1.4 µM | 2.81 µM | 1.79 µM | 3.47 µM | 2.17 µM | 4.46 µM | 1.76 µM | 3.28 µM | 1.97 µM | 4.05 µM | 2.11 µM | 4.81 µM | 1.88 µM | 3.73 µM | 1.71 µM | 3.47 µM
9 | O=S1(=O)c2ccccc2NC(c2ccc3ccccc3c2)CC1c1ccccc1F (stereo unspecified) | – | > 100 µM | – | > 100 µM | – | > 100 µM | – | > 100 µM | – | > 100 µM | – | > 100 µM | – | > 100 µM | – | > 100 µM | – | > 100 µM | – | > 100 µM
10 | COC1=CC(c2ccc[nH]2)=N/C1=C\c1[nH]c(C)c(C(=O)OC(C)C)c1C | 0.255 µM | 1.92 µM | 0.0505 µM | 1.05 µM | 0.0158 µM | 0.236 µM | 0.0535 µM | 1.62 µM | 0.0674 µM | 1.14 µM | 0.0163 µM | 0.0372 µM | 0.0269 µM | 1.63 µM | 0.223 µM | 2.47 µM | 0.866 µM | 34.9 µM | 0.025 µM | 0.0578 µM
11 | c1ccc2cc(-c3cc(-c4cc(-c5ccc6ccccc6c5)on4)no3)ccc2c1 | – | > 100 µM | – | > 100 µM | – | > 100 µM | – | > 100 µM | – | > 100 µM | – | > 100 µM | – | > 100 µM | – | > 100 µM | – | > 100 µM | – | > 100 µM
12 | CCOC(=O)[C@]1(OC(C)=O)C[C@H](OC(C)=O)[C@@H](C(F)COP(=O)(OCc2ccccc2)OCc2ccccc2)O1 (stereo partly specified) | 24.7 µM and > 100 µM | 52.8 µM and > 100 µM | – | > 100 µM | – | > 100 µM | 19.6 µM and > 100 µM | 39.8 µM and > 100 µM | – | > 100 µM | 29.4 µM and > 100 µM | > 100 µM | 18.4 µM and > 100 µM | 39.9 µM and > 100 µM | – | 46.5 µM and 82.5 µM | 32.9 µM and > 100 µM | > 100 µM | 16.9 µM and > 100 µM | 33.8 µM and > 100 µM
13 | CCCCCCCCCCCOc1ccc(C(=O)C(=O)c2ccc(OCCCCCCCCCCC)c(OCCCCCCCCCCC)c2)cc1OCCCCCCCCCCC | – | > 100 µM | – | > 100 µM | – | > 100 µM | – | > 100 µM | – | > 100 µM | – | > 100 µM | – | > 100 µM | – | > 100 µM | – | > 100 µM | – | > 100 µM
14 | Cc1nc2ccccc2c(N)c1-c1cc(C)c2c(C)nc3ccccc3c2n1 | 1.73 µM | 4.11 µM | 0.243 µM | 0.681 µM | 1.55 µM | 2.94 µM | 0.294 µM | 0.86 µM | 0.256 µM | > 100 µM | 0.248 µM | 0.717 µM | 0.329 µM | 1.17 µM | 0.173 µM | 0.52 µM | 1.59 µM | 3.39 µM | 1.29 µM | 2.61 µM
15 | Cn1cnc([N+](=O)[O-])c1Sc1nnc(-c2cccnc2)n1C | – | > 100 µM | – | > 100 µM | – | 42.7 µM | – | > 100 µM | – | 57.8 µM | – | 34.9 µM | – | > 100 µM | – | 49.4 µM | – | > 100 µM | – | 32.6 µM
